For this experiment, the target named is T1, PD-1/PD-L1 interaction (Homo sapiens, UniProt Q9NZQ7).
T1 construct: Tag1 or Tag2 (undisclosed kit tag); purchased CisBio 63ADK000CPAPEG
T1 sequence (Q9NZQ7 19-238 limits assumed): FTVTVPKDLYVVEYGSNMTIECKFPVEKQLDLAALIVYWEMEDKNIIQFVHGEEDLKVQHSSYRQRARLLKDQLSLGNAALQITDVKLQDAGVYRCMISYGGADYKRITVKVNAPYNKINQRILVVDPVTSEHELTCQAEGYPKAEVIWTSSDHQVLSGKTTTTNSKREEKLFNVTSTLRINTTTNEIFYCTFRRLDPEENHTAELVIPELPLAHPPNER
The experiment in a line: PD-1/PD-L1 Homogenous Time-Resolved Fluorescence (HTRF) binding assay. The following applies: Biochemical PD1/PD-L1 inhibition. How it is done:
PD-L1 Enzyme Assay: Homogenous Time-Resolved Fluorescence (HTRF) Binding Assay
All binding studies were performed using PD-1/PD-L1 Binding Assay Kit from CisBio (Catalog #63ADK000CPAPEG), according to the manufacturer's protocol. The interaction between Tag1-PD-1 and […] was detected by anti-Tag1-Eu^3+ (HTRF donor) and anti-Tag2-XL665 (HTRF acceptor). When the donor and acceptor antibodies were brought to close proximity due to PD-1 and PD-L1 binding, excitation of the donor antibody triggered fluorescent resonance energy transfer (FRET) towards the acceptor antibody, which in turn emitted specifically at 665 nm. This specific signal is positively proportional to PD-1/PD-L1 interaction. The compounds blocking PD-1/PD-L1 interaction will cause a reduction in HTRF signal. The necessary reagents were mixed in the following order: 2 μl compounds (or diluents buffer), 4 μl PD-L1 protein, 4 μl PD-1 protein. After an incubation of 15 minutes, 5 μl of anti-Tag1-Eu^3+ and 5 μl of anti-Tag2-XL665 were added. The plate was sealed and incubated at RT for 1 h. The fluorescence emission was read at two different wavelengths (665 nm and 620 nm) on a BMG PheraStar® multiplate reader. Results were calculated from the 665 nm and 620 nm fluorescence signal and expressed in HTRF ratio=(665 nm/620 nm)×[…].
Background: Time-resolved FRET reads energy transfer from a long-lived donor to a nearby acceptor.
As for `Cc1c(COc2ncc(CN3CCCC[C@H]3C(=O)O)c(OCc3cncc(C#N)c3)n2)cccc1-c1ccccc1` [Compound 12, (S)-1-((4-((5-cyanopyridin-3-yl)methoxy)-2-((2-methyl-[1,1′-biphenyl]-3-yl)methoxy)pyrimidin-5-yl)methyl)piperidine-2-carboxylic acid], the IC50 was above 500 nM. In the case of `COc1nc(OCc2cccc(-c3cccc(OCCCN4CCC(F)(F)C4)c3C)c2C)ncc1CN1CCCC[C@H]1C(=O)O` [Compound 13, (S)-1-((2-((3′-(3-(3,3-difluoropyrrolidin-1-yl)propoxy)-2,2′-dimethyl-[1,1′-biphenyl]-3-yl)methoxy)-4-methoxypyrimidin-5-yl)methyl)piperidine-2-carboxylic acid] it was 100 to 500 nM; in that of `COc1nc(OCc2cccc(-c3ccccc3)c2C)ncc1CNCCNC(C)=O` [Compound 14, N-(2-(((4-methoxy-2-((2-methyl-[1,1′-biphenyl]-3-yl)methoxy)pyrimidin-5-yl)methyl)amino)ethyl)acetamide], 100 to 500 nM; in that of `COc1nc(OCc2cccc(-c3ccccc3)c2C)ncc1CN1CCCC[C@@H]1C(=O)O` [Compound 15, (R)-1-((4-methoxy-2-((2-methyl-[1,1′-biphenyl]-3-yl)methoxy)pyrimidin-5-yl)methyl)piperidine-2-carboxylic acid], 100 to 500 nM. `COc1nc(OCc2cccc(-c3ccc(F)cc3)c2C)ncc1CN1CCCC[C@H]1C(=O)O` [Compound 16, (S)-1-((2-((4′-fluoro-2-methyl-[1,1′-biphenyl]-3-yl)methoxy)-4-methoxypyrimidin-5-yl)methyl)piperidine-2-carboxylic acid] came in with a half-maximal inhibitory concentration (IC50) above 500 nM. As to `COc1nc(OCc2cccc(-c3cccc(F)c3)c2C)ncc1CN1CCCC[C@H]1C(=O)O` [Compound 17, (S)-1-((2-((3′-fluoro-2-methyl-[1,1′-biphenyl]-3-yl)methoxy)-4-methoxypyrimidin-5-yl)methyl)piperidine-2-carboxylic acid], the IC50 is 100 to 500 nM. The compound `COc1nc(OCc2cccc(-c3cccc(F)c3)c2C)ncc1CNCCNC(C)=O` [Compound 18, N-(2-(((2-((3′-fluoro-2-methyl-[1,1′-biphenyl]-3-yl)methoxy)-4-methoxypyrimidin-5-yl)methyl)amino)ethyl)acetamide] gave an IC50 of 100 to 500 nM. In the case of `COc1nc(OCc2cccc(-c3ccccc3F)c2C)ncc1CN1CCCC[C@H]1C(=O)O` [Compound 19, (S)-1-((2-((2′-fluoro-2-methyl-[1,1′-biphenyl]-3-yl)methoxy)-4-methoxypyrimidin-5-yl)methyl)piperidine-2-carboxylic acid] it was 100 to 500 nM; in that of `COc1nc(OCc2cccc(-c3ccccc3F)c2C)ncc1CNCCNC(C)=O` [Compound 20, N-(2-(((2-((2′-fluoro-2-methyl-[1,1′-biphenyl]-3-yl)methoxy)-4-methoxypyrimidin-5-yl)methyl)amino)ethyl)acetamide], above 500 nM. On to `CCOc1nc(OCc2cccc(-c3ccccc3)c2C)ncc1CNCCNC(C)=O` [Compound 21, N-(2-(((4-ethoxy-2-((2-methyl-[1,1′-biphenyl]-3-yl)methoxy)pyrimidin-5-yl)methyl)amino)ethyl)acetamide], for which the IC50 is above 500 nM. For `CCOc1nc(OCc2cccc(-c3ccccc3)c2C)ncc1CN1CCCC[C@H]1C(=O)O` [Compound 22, (S)-1-((4-ethoxy-2-((2-methyl-[1,1′-biphenyl]-3-yl)methoxy)pyrimidin-5-yl)methyl)piperidine-2-carboxylic acid] the value was 100 to 500 nM; for `CCOc1nc(OCc2cccc(-c3ccccc3)c2C)ncc1CNC1(C(=O)O)CC1` [Compound 23, 1-(((4-ethoxy-2-((2-methyl-[1,1′-biphenyl]-3-yl)methoxy)pyrimidin-5-yl)methyl)amino)cyclopropane-1-carboxylic acid], 100 to 500 nM.

With `CCOc1nc(OCc2cccc(-c3ccccc3)c2C)ncc1CNCCC(=O)O` [Compound 24], the IC50 was above 500 nM. In the case of `CCOc1nc(OCc2cccc(-c3ccccc3)c2C)ncc1CNC(CO)(CO)CO` [Compound 25, 2-(((4-ethoxy-2-((2-methyl-[1,1′-biphenyl]-3-yl)methoxy)pyrimidin-5-yl)methyl)amino)-2-(hydroxymethyl)propane-1,3-diol] it was below 100 nM; in that of `CCOc1nc(OCc2cccc(-c3ccccc3)c2C)ncc1CN[C@@H](C)CC(=O)O` [Compound 27, (S)-3-(((4-ethoxy-2-((2-methyl-[1,1′-biphenyl]-3-yl)methoxy)pyrimidin-5-yl)methyl)amino)butanoic acid], above 500 nM; in that of `CCOc1nc(OCc2cccc(-c3ccccc3)c2C)ncc1CN[C@H](C)C(=O)O` [Compound 28, ((4-ethoxy-2-((2-methyl-[1,1′-biphenyl]-3-yl)methoxy)pyrimidin-5-yl)methyl)-D-alanine], 100 to 500 nM.

`CCOc1nc(OCc2cccc(-c3ccccc3)c2C)ncc1CNC(CC(N)=O)C(=O)O` (stereo not drawn) [Compound 29, ((4-ethoxy-2-((2-methyl-[1,1′-biphenyl]-3-yl)methoxy)pyrimidin-5-yl)methyl)asparagine] displayed an IC50 of 100 to 500 nM.

For the compound `CCOc1nc(OCc2cccc(-c3ccccc3)c2C)ncc1CN1CCC1C(=O)O` (stereo not drawn) [Compound 31, 1-((4-ethoxy-2-((2-methyl-[1,1′-biphenyl]-3-yl)methoxy)pyrimidin-5-yl)methyl)azetidine-2-carboxylic acid], the half-maximal inhibitory concentration (IC50) was 100 to 500 nM. In the case of `CC(=O)NCCNCc1cnc(OCc2cccc(-c3ccccc3)c2C)nc1OCc1ccccc1` [Compound 32, N-(2-(((4-(benzyloxy)-2-((2-methyl-[1,1′-biphenyl]-3-yl)methoxy)pyrimidin-5-yl)methyl)amino)ethyl)acetamide] it was above 500 nM; in that of `Cc1c(COc2ncc(CN3CCCCC3C(=O)O)c(OCc3ccccc3)n2)cccc1-c1ccccc1` (stereo not drawn) [Compound 33, 1-((4-(benzyloxy)-2-((2-methyl-[1,1′-biphenyl]-3-yl)methoxy)pyrimidin-5-yl)methyl)piperidine-2-carboxylic acid], above 500 nM; in that of `COc1nc(OCc2cccc(-c3ccccc3)c2C)nc(OC)c1CN1C[C@H](O)C[C@H]1C(=O)O` [Compound 34, (2S,4R)-1-((4,6-dimethoxy-2-((2-methyl-[1,1′-biphenyl]-3-yl)methoxy)pyrimidin-5-yl)methyl)-4-hydroxypyrrolidine-2-carboxylic acid], below 100 nM. In the case of `COc1nc(OCc2cccc(-c3ccccc3)c2C)nc(OC)c1CNC(CO)(CO)CO` [Compound 35, 2-(((4,6-dimethoxy-2-((2-methyl-[1,1′-biphenyl]-3-yl)methoxy)pyrimidin-5-yl)methyl)amino)-2-(hydroxymethyl)propane-1,3-diol] it was below 100 nM.

For `COc1nc(OCc2cccc(-c3ccccc3)c2C)nc(OC)c1CN1CCC[C@H]1C(=O)O` [Compound 36, ((4,6-dimethoxy-2-((2-methyl-[1,1′-biphenyl]-3-yl)methoxy)pyrimidin-5-yl)methyl)-L-proline], the half-inhibitory concentration (IC50) was 100 to 500 nM. For `COC(=O)C1COCCN1Cc1c(OC)nc(OCc2cccc(-c3ccccc3)c2C)nc1OC` (stereo not drawn) [Compound 37, Methyl 4-((4,6-dimethoxy-2-((2-methyl-[1,1′-biphenyl]-3-yl)methoxy)pyrimidin-5-yl)methyl) morpholine-3-carboxylate] the value was above 500 nM. For `COc1nc(OCc2cccc(-c3ccccc3)c2C)nc(OC)c1CN1CCOCC1C(=O)O` (stereo not drawn) [Compound 38, 4-((4,6-dimethoxy-2-((2-methyl-[1,1′-biphenyl]-3-yl)methoxy)pyrimidin-5-yl)methyl)morpholine-3-carboxylic acid] the value was below 100 nM. In the case of `CCOc1nc(OCc2cccc(-c3ccccc3)c2C)nc(OCC)c1CN1C[C@H](O)C[C@H]1C(=O)O` [Compound 39, (2S,4R)-1-((4,6-diethoxy-2-((2-methyl-[1,1′-biphenyl]-3-yl)methoxy)pyrimidin-5-yl)methyl)-4-hydroxypyrrolidine-2-carboxylic acid] it was 100 to 500 nM. On to `CCOc1nc(OCc2cccc(-c3ccccc3)c2C)nc(OCC)c1CN1CCCC[C@H]1C(=O)O` [Compound 40], for which the IC50 is 100 to 500 nM. For `CCOc1nc(OCc2cccc(-c3ccccc3)c2C)nc(OCC)c1CNC(CO)(CO)CO` [Compound 41, 2-(((4,6-diethoxy-2-((2-methyl-[1,1′-biphenyl]-3-yl)methoxy)pyrimidin-5-yl)methyl)amino)-2-(hydroxymethyl)propane-1,3-diol] the value was 100 to 500 nM; for `COc1nc(OCc2cccc(-c3ccccc3)c2C)nc(OC)c1CN1CCOC[C@H]1C(=O)O` [Compound 43, (S)-4-((4,6-dimethoxy-2-((2-methyl-[1,1′-biphenyl]-3-yl)methoxy)pyrimidin-5-yl)methyl)morpholine-3-carboxylic acid], below 100 nM; for `COc1nc(OCc2cccc(-c3ccccc3)c2C)nc(OC)c1CN1CCOCC1CC(=O)O` (stereo not drawn) [Compound 44, 2-(4-((4,6-dimethoxy-2-((2-methyl-[1,1′-biphenyl]-3-yl)methoxy)pyrimidin-5-yl)methyl)morpholin-3-yl)acetic acid], 100 to 500 nM.

As usually defined, the IC50 is the point on the concentration scale where inhibition reaches its midpoint. High values mean lower potency, low ones higher potency.

For the origin of these results see US11629135B2 (JUBILANT PRODEL LLC, priority 2017, dated 2023).
